According to patent US20230129258A1, “HETEROTANDEM BICYCLIC PEPTIDE COMPLEXES” (BicycleTx Limited, priority 2019, published 2023):

Key:
[1] = system: TNF family receptors OX40 and CD40; assay: CD137 paralogue screening by SPR; assay type: binding; settings: streptavidin captured peptide, soluble receptors
Description: CD137 Paralogue screening: Binding of streptavidin captured BCY13582 (biotinylated-BCY11863) was assessed using SPR against soluble TNF family receptors OX40 and CD40.

CD137 [2] = target: T1, CD137 (Homo sapiens, UniProt Q07011); assay: CD137 reporter assay (Promega CD137 luciferase reporter, Jurkat cells) in co-culture with Nectin-4-expressing tumor cells; assay type: cell-based; set-up: host or cells: Jurkat reporter cells; settings: for EC50: Arithmetic mean EC50 (nM)
[3] = system: 5484 full-length human plasma membrane proteins and secreted proteins expressed in HEK293 cells; assay: Retrogenix cell microarray off-target screening; assay type: binding; settings: 1 μM test peptide
Description: Retrogenix microarray screening: Retrogenix's cell microarray technology was used to screen for specific off-target binding interactions of a biotinylated BCY11863 known as BCY13582.
Under these conditions, the test peptide was screened for binding against human HEK293 cells, individually expressing 5484 full-length human plasma membrane proteins and secreted proteins.
Each primary hit was re-expressed, along with two control receptors (TGFBR2 and EGFR), and re-tested with 1 μM BCY13582 test peptide, 1 μM BCY13582 test peptide in the presence of 100 μM BCY11863, and other positive and negative control treatments (FIG. 4). […] These were untethered and tethered forms of Nectin-4, and CD137—the primary targets.

CD137 [4] = target: T1, CD137; assay: CD137 reporter assay (Promega, Jurkat cells) in co-culture with PD-L1-expressing RKO cells; assay type: cell-based; set-up: host or cells: Jurkat reporter cells; settings: read-out: Fold Induction over background
Description: Culture medium, referred to as R1 media, is prepared by adding 1% FBS to RPMI-1640 (component of Promega kit CS196005). Serial dilutions of test articles in R1 are prepared in a sterile 96 well-plate. Add 25 μL per well of test articles or R1 (as a background control) to designated wells in a white cell culture plate. Tumor cells* are harvested and resuspended at a concentration of 400,000 cells/mL in R1 media. Twenty five (25) μL/well of tumor cells are added to the white cell culture plate. Jurkat cells (Promega kit CS196005, 0.5 mL) are thawed in the water bath and then added to 5 ml pre-warmed R1 media. Twenty five (25) μL/well of Jurkat cells are then added to the white cell culture plate. Incubate the cells and test articles for 6 h at 37° C., 5% CO2. At the end of 6 h, add 75 μL/well Bio-Glo™ reagent (Promega) and incubate for 10 min before reading luminescence in a plate reader (Clariostar, BMG). The fold change relative to cells alone (Jurkat cells+Cell line used in co-culture) is calculated and plotted in GraphPad Prism as log(agonist) vs response to determine EC50 (nM) and Fold Induction over background (Max).
The tumor cell types used in co-culture for EphA2 are A549, PC3 and HT29. The tumor cell type used in co-culture for PD-L1 is RKO.

OX40 = target: T2, OX40 (Homo sapiens, UniProt P43489); assay: Promega OX40 cell-activity assay (NF-kB luciferase, Jurkat) in co-culture with 4T1-D02 tumor cells; assay type: cell-based; settings: co-culture with Nectin-4 positive 4T1-D02 cells
T2 construct: host or cells: OX40 Jurkat cells
T2 sequence (P43489 29-277): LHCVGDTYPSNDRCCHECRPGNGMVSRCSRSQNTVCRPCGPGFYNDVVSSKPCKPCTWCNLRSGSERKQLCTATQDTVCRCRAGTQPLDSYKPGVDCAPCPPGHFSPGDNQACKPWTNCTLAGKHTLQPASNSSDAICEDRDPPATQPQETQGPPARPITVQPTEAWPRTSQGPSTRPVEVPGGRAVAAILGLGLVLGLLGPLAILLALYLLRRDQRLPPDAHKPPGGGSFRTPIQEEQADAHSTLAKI
Description: Promega have developed an OX40 cell-activity assay that uses NF-κB luciferase luminescence as a read-out of OX40 activation in Jurkat cells (Promega CS197704). On the day of the experiment, prepare medium by thawing FBS and adding 5% FBS to RPMI-1640. Thaw OX40 Jurkat cells in the water-bath and then add 500 μl cells to 11.5 ml pre-warmed 5% FBS RPMI-1640 medium. Add 55 μl cells/well to white cell culture plates. Harvest tumor cells from culture. 4T1 is a Nectin-4 negative murine mammary gland epithelial cancer cell and it was genetically modified to express murine Nectin-4 on the cell surface (4T1 Nectin-4 positive; clone 411-D02). Tumor cells were cultured to 80% confluency in vitro in RPM11640 medium supplemented with 10% heat-inactivated FBS, 1× Penicillin/Streptomycin, 1× L-Glutamine, 20 mM HEPES and 1×NEAA (RPMI working medium). Tumor cells were trypsinized and washed two times at 1500 rpm for 5 minutes in RPM11640 working medium prewarmed to 37° C. Count cells and resuspend at 2,000,000 cells/mL in R5 media (for 10,000 cells/well). Add 5 μL of tumor cells per well. […]
Co-incubate cells together with agonists for 6 hours at 37° C., 5% CO2. […] Read luciferase signal on CLAIROStar plate-reader using the MARS program and normalize the fold induction relative to background (medium alone). […]

T1 sequence (Q07011 24-255): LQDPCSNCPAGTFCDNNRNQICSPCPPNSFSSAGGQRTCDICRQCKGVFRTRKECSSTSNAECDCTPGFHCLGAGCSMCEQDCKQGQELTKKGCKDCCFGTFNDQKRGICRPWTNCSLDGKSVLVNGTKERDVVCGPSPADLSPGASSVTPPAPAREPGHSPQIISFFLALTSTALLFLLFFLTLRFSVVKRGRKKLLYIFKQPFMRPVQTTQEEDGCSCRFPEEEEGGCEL

SMILES: CCCC[C@@H]1NC(=O)[C@H](Cc2ccc(O)cc2)NC(=O)[C@@H]2CCCN2C(=O)[C@H](CC(=O)O)NC(=O)[C@H](C)NC(=O)[C@H](Cc2ccccc2)NC(=O)[C@@H]2CSCCC(=O)N3CN(CN(C3)C(=O)CCSC[C@@H](C(=O)N[C@@H](C)C(N)=O)NC1=O)C(=O)CCSC[C@H](NC(C)=O)C(=O)N[C@@H](CC(C)(C)C)C(=O)N1CCC[C@H]1C(=O)N[C@@H](CCC(=O)O)C(=O)N[C@H](CCCCNC(=O)CCc1cn(CCOCCOCCOCCN(CCOCCOCCOCCC(=O)N[C@H]3CSCCC(=O)N4CN5CN(C4)C(=O)CCSC[C@H](NC(=O)[C@@H](CC(=O)O)NC(=O)[C@H](Cc4cccc6ccccc46)NC(=O)[C@@H]4CCCN4C3=O)C(=O)N[C@@H](CCSC)C(=O)N[C@@H](CCCCNC(=N)N)C(=O)N[C@@H](CC(=O)O)C(=O)N[C@@H](Cc3c[nH]c4ccccc34)C(=O)N[C@@H](CO)C(=O)N[C@@H]([C@@H](C)O)C(=O)N3CCC[C@H]3C(=O)N3C[C@H](O)C[C@H]3C(=O)N[C@@H](Cc3c[nH]c4ccccc34)C(=O)N[C@H](C(N)=O)CSCCC5=O)CCOCCOCCOCCn3cc(CCC(=O)NCCCC[C@H]4NC(=O)[C@H](CCC(=O)O)NC(=O)[C@@H]5CCCN5C(=O)[C@H](CC(C)(C)C)NC(=O)[C@@H](NC(C)=O)CSCCC(=O)N5CN6CN(C5)C(=O)CCSC[C@H](NC(=O)[C@H](Cc5ccc(O)cc5)NC(=O)[C@@H]5CCCN5C4=O)C(=O)N[C@@H](Cc4ccccc4)C(=O)N[C@@H](C)C(=O)N[C@@H](CC(=O)O)C(=O)N4CCC[C@H]4C(=O)N[C@@H](Cc4ccc(O)cc4)C(=O)N[C@@H](CCCC)C(=O)N[C@H](C(=O)N[C@@H](CCCCNC(=O)CCOCCOCCOCCOCCOCCOCCOCCOCCOCCOCCOCCOCCNC(=O)CCCC[C@@H]4SC[C@@H]5NC(=O)N[C@@H]54)C(N)=O)CSCCC6=O)nn3)nn1)C(=O)N1CCC[C@H]1C(=O)N[C@@H](Cc1ccc(O)cc1)C(=O)N2 [BCY13582]
- binding to OX40 and CD40: concentration up to which no binding was seen [1]: > 100 nM
- EC50 (CD137 [2]; co-culture with HT1376 (human), Table 1B): 0.58 ± 0.27 nM
- EC50 (CD137 [2]; co-culture with MDA-MB-468 (human)): 0.34 ± 0.02 nM
- Emax (CD137 [2]; co-culture with HT1376, Table 2A): 57 fold induction over background
- specific off-target interactions [3]: No specific off-target interactions

SMILES: CCCC[C@@H]1NC(=O)[C@H](Cc2ccc(O)cc2)NC(=O)[C@@H]2CCCN2C(=O)[C@H](CC(=O)O)NC(=O)[C@H](C)NC(=O)[C@H](Cc2ccccc2)NC(=O)[C@@H]2CSCCC(=O)N3CN(CN(C3)C(=O)CCSC[C@@H](C(=O)N[C@@H](C)C(N)=O)NC1=O)C(=O)CCSC[C@H](NC(C)=O)C(=O)N[C@@H](CC(C)(C)C)C(=O)N1CCC[C@H]1C(=O)N[C@@H](CCC(=O)O)C(=O)N[C@H](CCCCNC(=O)CCc1cn(CCOCCOCCOCCOCCOCCOCCOCCOCCOCCOCCNC(=O)CCOCCN(CCOCCC(=O)NCCOCCOCCOCCOCCOCCOCCOCCOCCOCCOCCn3cc(CCC(=O)NCCCC[C@@H]4NC(=O)[C@H](CCC(N)=O)NC(=O)[C@@H]5CSCCC(=O)N6CN(CN(C6)C(=O)CCSC[C@@H](C(=O)N6CCC[C@H]6C(=O)N[C@@H](CO)C(=O)N[C@@H](Cc6c[nH]cn6)C(N)=O)NC(=O)[C@H](CC(C)C)NC(=O)[C@H](Cc6c[nH]cn6)NC(=O)[C@H](CC(C)C)NC4=O)C(=O)CCSC[C@H](NC(=O)[C@H](CCCCN)NC(=O)[C@H](CC(=O)O)NC(=O)[C@H](CO)NC(C)=O)C(=O)N[C@@H](CO)C(=O)N[C@@H](C)C(=O)NCC(=O)N[C@@H](Cc4c[nH]c6ccccc46)C(=O)N[C@@H](CC(C)C)C(=O)N[C@@H]([C@@H](C)O)C(=O)N[C@@H](CCSC)C(=O)N5)nn3)CCOCCC(=O)NCCOCCOCCOCCOCCOCCOCCOCCOCCOCCOCCn3cc(CCC(=O)NCCCC[C@H]4NC(=O)[C@H](CCC(=O)O)NC(=O)[C@@H]5CCCN5C(=O)[C@H](CC(C)(C)C)NC(=O)[C@@H](NC(C)=O)CSCCC(=O)N5CN6CN(C5)C(=O)CCSC[C@H](NC(=O)[C@H](Cc5ccc(O)cc5)NC(=O)[C@@H]5CCCN5C4=O)C(=O)N[C@@H](Cc4ccccc4)C(=O)N[C@@H](C)C(=O)N[C@@H](CC(=O)O)C(=O)N4CCC[C@H]4C(=O)N[C@@H](Cc4ccc(O)cc4)C(=O)N[C@@H](CCCC)C(=O)N[C@H](C(=O)N[C@@H](C)C(N)=O)CSCCC6=O)nn3)nn1)C(=O)N1CCC[C@H]1C(=O)N[C@@H](Cc1ccc(O)cc1)C(=O)N2 [BCY11780]
- fold induction (CD137 [4]): 13

SMILES: CSCC[C@@H]1NC(=O)[C@@H]2CSCCC(=O)N3CN(CN(C3)C(=O)CCSC[C@H](NC(=O)CCOCCOCCOCCN(CCOCCOCCOCCn3cc(CCC(=O)NCCCC[C@H](NC(=O)[C@H](C)NC(=O)[C@@H]4CSCCC(=O)N5CN6CN(C5)C(=O)CCSC[C@H](NC(=O)[C@@H]5CCCN5C(=O)[C@H](CO)NC(=O)[C@H](Cc5ccc(O)cc5)NC(=O)[C@H](CC(C)C)NC(=O)[C@@H](NC(=O)[C@H](C)N)CSCCC6=O)C(=O)N[C@@H](Cc5c[nH]c6ccccc56)C(=O)N[C@@H](Cc5c[nH]cn5)C(=O)N5CCC[C@H]5C(=O)N[C@@H](CC(C)C)C(=O)N[C@@H](CC(N)=O)C(=O)N[C@@H](CC(=O)O)C(=O)N4)C(N)=O)nn3)CCOCCOCCOCCn3cc(CCC(=O)NCCCC[C@H](NC(=O)[C@H](C)NC(=O)[C@@H]4CSCCC(=O)N5CN6CN(C5)C(=O)CCSC[C@H](NC(=O)[C@@H]5CCCN5C(=O)[C@H](CO)NC(=O)[C@H](Cc5ccc(O)cc5)NC(=O)[C@H](CC(C)C)NC(=O)[C@@H](NC(=O)[C@H](C)N)CSCCC6=O)C(=O)N[C@@H](Cc5c[nH]c6ccccc56)C(=O)N[C@@H](Cc5c[nH]cn5)C(=O)N5CCC[C@H]5C(=O)N[C@@H](CC(C)C)C(=O)N[C@@H](CC(N)=O)C(=O)N[C@@H](CC(=O)O)C(=O)N4)C(N)=O)nn3)C(=O)N3CCC[C@H]3C(=O)N[C@@H](Cc3cccc4ccccc34)C(=O)N[C@H](CC(=O)O)C(=O)N2)C(=O)CCSC[C@@H](C(N)=O)NC(=O)[C@H](Cc2c[nH]c3ccccc23)NC(=O)[C@@H]2C[C@@H](O)CN2C(=O)[C@@H]2CCCN2C(=O)[C@H]([C@@H](C)O)NC(=O)[C@H](CO)NC(=O)[C@H](Cc2c[nH]c3ccccc23)NC(=O)[C@H](CC(=O)O)NC(=O)[C@H](CCCCNC(=N)N)NC1=O [BCY12967]
- OX40 agonism (OX40): potent OX40 agonism
